In patent US10647680B2, “Urea compound, preparation method therefor and medical use thereof” (Ancureall Pharmaceutical (Shanghai) Co., Ltd., priority 2016, dated 2020):
Structures can show the parent of a compound that is named as a salt.

How the values were obtained:
[1] = Solubility test; format: physicochemical; conditions: in water at 25° C.±2° C.
Experimental: The fine powder of the test sample was weighed into an appropriate amount of water at 25° C.±2° C. and shaken vigorously for 30 seconds every 5 minutes so that it was fully dissolved within 30 minutes. If no visible solute particles were observed, it was considered completely dissolved. “Readily soluble” means that 1 g of the test sample could be dissolved in 1-10 ml of water; and “soluble” means that 1 g of the test sample could be dissolved in 10-30 ml of water; “slightly soluble” means that 1 g of the test sample could be dissolved in 30-100 ml of water; and “sparingly soluble” means that 1 g of the test sample could be dissolved in 100-1,000 ml of water; “nearly insoluble or insoluble” means that 1 g of the test sample could not be completely dissolved in 10,000 ml of water.

[2] = test system: KG-1 (expressing FGFR1OP2-FGFR1 fusion protein); assay: In vitro growth inhibition (GI50), KG-1; format: cell-based; conditions: Homo sapiens; Cell lines of leukemia; read-out: GI 50 KG-1 FGFR1OP 2-FGFR1
[3] = test system: RAMOS (positive expression of Brutons tyrosine protein kinase); assay: In vitro growth inhibition (GI50), RAMOS; format: cell-based; conditions: Homo sapiens, Cell lines of leukemia, read-out: GI 50 Ramos BTK
[4] = test system: RS4; 11 (FLT3 wild type); assay: In vitro growth inhibition (GI50), RS4; 11; format: cell-based, human; conditions: Homo sapiens, RS4-11; Cell lines of leukemia; read-out: GI 50 RS4: 11 FLT3 (WT)
[5] = test system: K562 (FLT3 negative expression, positive expression of BCR-ABL fusion protein); assay: In vitro growth inhibition (GI50), K562; format: cell-based; conditions: Homo sapiens, Cell lines of leukemia, read-out: GI 50 K562 BCR-ABL
[6] = test system: MOLM-13 (FLT3 ITD+/− mutant type); assay: In vitro growth inhibition (GI50), MOLM-13; format: cell-based, human; conditions: Homo sapiens, MOLM-13; Cell lines of leukemia; read-out: GI 50 MOLM-13 FLT3 (ITD+/−)
[7] = test system: HL-60 (FLT3 wild type); assay: In vitro growth inhibition (GI50), HL-60; format: cell-based; conditions: Homo sapiens, Cell lines of leukemia, read-out: GI 50 HL60 FLT3 (WT)
Procedure, shortened: (§1)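 After 3–5 days of treatment (top concentration 5,000 nM, serially diluted 2- or 10-fold to 0.01 nM, solvent ≤1%), viability was read by CCK8 at OD450. Growth rate was normalised to the time-zero and solvent-control wells, and GI50 was derived from the curve. Cultures in RPMI1640 + 10% FBS.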

[8] = test system: U937 (FLT3 wild-type); assay: In vitro growth inhibition (GI50), U937; format: cell-based; conditions: Homo sapiens, U-937; Cell lines of leukemia; read-out: GI 50 U937 FLT 3(WT)
[9] = test system: OCI-AML3 (NPMc+ mutant type); assay: In vitro growth inhibition (GI50), OCI-AML3; format: cell-based; conditions: Homo sapiens, OCI-AML-3; Cell lines of leukemia; read-out: GI 50 OCI- AML3 NPMc+
[10] = test system: MV4-11 (FLT3 ITD+/+ mutant type); assay: In vitro growth inhibition (GI50), MV4-11; format: cell-based, human; conditions: Homo sapiens, MV4-11; Cell lines of leukemia; read-out: GI 50 MV4-11 FLT3 (ITD +/+)
[11] = test system: Kasumi-1 (c-Kit N822K mutant type); assay: In vitro growth inhibition (GI50), Kasumi-1; format: cell-based; conditions: Homo sapiens, Cell lines of leukemia, read-out: GI 50 Kasumi-1 Kit (N822K)
Procedure, shortened: as §1

GI50 [3]	GI50 [4]	GI50 [5]	GI50 [6]	GI50 [7]	GI50 [8]	GI50 [9]	GI50 [10]	Structure (SMILES)	Solubility ([1]; listed as 77 p-toluenesulfonate)	Solubility ([1]; listed as 77 Hydrochloride)	Solubility [1]	GI50 [2]	GI50 [11]
–	–	–	–	–	–	–	–	COCCOc1ccc2c(c1)ncn2-c1ccc(NC(=O)Nc2cc(C(C)(C)C)n[nH]2)cc1 [Compound 77 p-toluenesulfonate, 1-(5-tert-butyl-2H-pyrazol-3-yl)-3-{4-[5-(2-methoxyl-ethoxyl)-benzimidazol-1-yl]-phenyl}-urea]	slightly soluble (“slightly soluble” means that 1 g of the test sample could be dissolved in 30-100 ml of water)	–	–	–	–
–	–	–	–	–	–	–	–	COCCOc1ccc2c(c1)ncn2-c1ccc(NC(=O)Nc2cc(C(C)(C)C)n[nH]2)cc1 [Compound 77 Hydrochloride, 1-(5-tert-butyl-2H-pyrazol-3-yl)-3-{4-[5-(2-methoxyl-ethoxyl)-benzimidazol-1-yl]-phenyl}-urea]	–	slightly soluble (“slightly soluble” means that 1 g of the test sample could be dissolved in 30-100 ml of water)	–	–	–
–	–	–	–	–	–	–	–	CC(C)(C)c1cc(NC(=O)Nc2ccc(-n3cnc4cc(OCCN5CCOCC5)ccc43)cc2)[nH]n1 [Compound 89 Mesylate, 1-(5-tert-butyl-2H-pyrazol-3-yl)-3-{4-[5-(2-morpholin-4-yl-ethoxyl)-benzimidazol-1-yl]-phenyl}-urea]	–	–	readily soluble (“Readily soluble” means that 1 g of the test sample could be dissolved in 1-10 ml of water)	–	–
> 1 µM	0.1 to 1 µM	0.1 to 1 µM	0.001 to 0.01 µM	> 1 µM	> 1 µM	> 1 µM	0.001 to 0.01 µM	CCOC(=O)c1ccc(-n2nc(C(C)(C)C)cc2NC(=O)Nc2ccc(-n3cnc4ccccc43)cc2)cc1 [Compound 111, ethyl 4-{5-[3-(4-benzimidazol-1-yl-phenyl)-carbamido]-3-tert-butyl-pyrazol-1-yl}-benzoate]	–	–	–	> 1 µM	> 1 µM
> 1 µM	> 1 µM	> 1 µM	0.0001 to 0.001 µM	0.1 to 1 µM	> 1 µM	> 1 µM	0.0001 to 0.001 µM	CC(C)(C)c1cc(NC(=O)Nc2ccc(-n3cnc4cc(OCC5CCCO5)ccc43)cc2)[nH]n1 (stereo not shown) [Compound 86, 1-(5-tert-butyl-2H-pyrazol-3-yl)-3-{4-[5-(tetrahydrofuran-2-ylmethoxy)-benzimidazol-1-yl]-phenyl}-urea]	–	–	–	> 1 µM	> 1 µM
> 1 µM	> 1 µM	> 1 µM	0.001 to 0.01 µM	0.1 to 1 µM	> 1 µM	> 1 µM	0.001 to 0.01 µM	Cc1cc(F)cc2ncn(-c3ccc(NC(=O)Nc4cc(C(C)(C)C)on4)cc3)c12 [Compound 33, 1-(5-tert-butyl-isoxazol-3-yl)-3-[4-(5-fluoro-7-methyl-benzimidazol-1-yl)-phenyl]-urea]	–	–	–	> 1 µM	> 1 µM
> 1 µM	0.1 to 1 µM	0.1 to 1 µM	0.001 to 0.01 µM	> 1 µM	> 1 µM	> 1 µM	0.001 to 0.01 µM	CC(C)(C)c1cc(NC(=O)Nc2ccc(-n3cnc4cc(C(F)(F)F)ccc43)cc2)no1 [Compound 23, 1-(5-tert-butyl-isoxazol-3-yl)-3-[4-(5-trifluoromethyl-benzimidazol-1-yl)-phenyl]-urea]	–	–	–	> 1 µM	> 1 µM
> 1 µM	0.1 to 1 µM	0.1 to 1 µM	0.001 to 0.01 µM	> 1 µM	> 1 µM	> 1 µM	0.001 to 0.01 µM	CC(C)(C)c1cc(NC(=O)Nc2ccc(-n3cnc4ccccc43)cc2)n(-c2ccccc2F)n1 [Compound 109, 1-(4-benzimidazol-1-yl-phenyl)-3-[5-tert-butyl-2-(2-fluoro-phenyl)-2H-pyrazol-3-yl]-urea]	–	–	–	> 1 µM	> 1 µM
> 1 µM	> 1 µM	> 1 µM	0.0001 to 0.001 µM	> 1 µM	> 1 µM	> 1 µM	0.0001 to 0.001 µM	COc1cc2ncn(-c3ccc(NC(=O)Nc4cc(C(C)(C)C)n[nH]4)cc3)c2cc1OC [Compound 99, 1-(5-tert-butyl-2H-pyrazol-3-yl)-3-[4-(5,6-dimethoxyl-benzimidazol-1-yl)-phenyl]-urea]	–	–	–	> 1 µM	> 1 µM
> 1 µM	> 1 µM	> 1 µM	0.001 to 0.01 µM	> 1 µM	> 1 µM	> 1 µM	0.001 to 0.01 µM	Cc1cc2ncn(-c3ccc(NC(=O)Nc4cc(C(C)(C)C)on4)cc3)c2cc1C [Compound 32, 1-(5-tert-butyl-isoxazol-3-yl)-3-[4-(5,6-dimethyl-benzimidazol-1-yl)-phenyl]-urea]	–	–	–	> 1 µM	> 1 µM
> 1 µM	> 1 µM	> 1 µM	0.0001 to 0.001 µM	> 1 µM	> 1 µM	> 1 µM	0.0001 to 0.001 µM	CC(C)(C)c1cc(NC(=O)Nc2ccc(-n3cnc4cc(OCC5CCCO5)ccc43)cc2)no1 (stereo not shown) [Compound 10, 1-(5-tert-butyl-isoxazol-3-yl)-3-{4-[5-(tetrahydrofuran-2-ylmethoxy)-benzimidazol-1-yl]-phenyl}-urea]	–	–	–	> 1 µM	> 1 µM
> 1 µM	> 1 µM	> 1 µM	0.0001 to 0.001 µM	> 1 µM	> 1 µM	> 1 µM	0.0001 to 0.001 µM	CCOCCOc1ccc2c(c1)ncn2-c1ccc(NC(=O)Nc2cc(C(C)(C)C)n[nH]2)cc1 [Compound 78, 1-(5-tert-butyl-2H-pyrazol-3-yl)-3-{4-[5-(2-ethoxyl-ethoxyl)-benzimidazol-1-yl]-phenyl}-urea]	–	–	–	> 1 µM	> 1 µM
> 1 µM	> 1 µM	> 1 µM	0.0001 to 0.001 µM	> 1 µM	> 1 µM	> 1 µM	0.0001 to 0.001 µM	CN(C)CCOc1ccc2c(c1)ncn2-c1ccc(NC(=O)Nc2cc(C(C)(C)C)on2)cc1 [Compound 20, 1-(5-tert-butyl-isoxazol-3-yl)-3-{4-[5-(2-dimethylamino-ethoxyl)-benzimidazol-1-yl]-phenyl}-urea]	–	–	–	> 1 µM	> 1 µM
0.1 to 1 µM	0.1 to 1 µM	0.1 to 1 µM	0.0001 to 0.001 µM	0.1 to 1 µM	0.1 to 1 µM	> 1 µM	0.0001 to 0.001 µM	CC(C)(C)c1cc(NC(=O)Nc2ccc(-n3cnc4cc(OCCN5CCCCC5)ccc43)cc2)no1 [Compound 17, 1-(5-tert-butyl-isoxazol-3-yl)-3-{4-[5-(2-piperidin-1-yl-ethoxyl)-benzimidazol-1-yl]-phenyl}-urea]	–	–	–	0.1 to 1 µM	0.1 to 1 µM
> 1 µM	> 1 µM	> 1 µM	0.01 to 0.1 µM	> 1 µM	> 1 µM	> 1 µM	0.01 to 0.1 µM	CC(C)(C)c1cc(NC(=O)Nc2ccc(-n3cnc4ccccc43)cc2)n(-c2ccccn2)n1 [Compound 110, 1-(4-benzimidazol-1-yl-phenyl)-3-(5-tert-butyl-2-pyridin-2-yl-2H-pyrazol-3-yl)-urea]	–	–	–	> 1 µM	> 1 µM
> 1 µM	> 1 µM	> 1 µM	0.001 to 0.01 µM	> 1 µM	> 1 µM	> 1 µM	0.001 to 0.01 µM	CN1CCN(CCCOc2ccc3c(c2)ncn3-c2ccc(NC(=O)n3nc(C(C)(C)C)cc3N)cc2)CC1 [Compound 118, 5-amino-3-tert-butyl-pyrazol-1-carboxylic acid (4-{5-[3-(4-methyl-piperazin-1-yl)-propoxyl]-benzimidazol-1-yl}-phenyl)-amide]	–	–	–	> 1 µM	> 1 µM
